For the series, the target named is IRF4. The settings on record: ASO.

Several values for one entry are separate records, joined by “and”; a condition that tells them apart may be missing. Equal values may be shown once. After the bases stand the sugars from the 5' end (letter, count) and the backbone: PS all phosphorothioate, else s phosphorothioate and o phosphodiester by linkage. Methylation of C is not given here. e = 2'-O-(2-methoxyethyl) (MOE); k = constrained ethyl (cEt); d = 2'-deoxy (DNA)

As for GGAGGAGGGTTGGCCT (sugars k3 d10 k3, PS), the target mRNA inhibition (SK-MEL-28, 4 µM) worked out at 1%. As for GCTAACTTACAGGACT (sugars k3 d10 k3, PS), for the setting “MM.1R, 1 µM”, the target mRNA inhibition was -8%. Take “GTTGGCTGGTCTTTGT (sugars kdddddddddkekeke, PS)”: the target mRNA inhibition (MM.1R, 1 µM) came to 18%.

With GTTGTACAGGACAGGT (sugars k3 d10 k3, PS), where the note is “MM.1R, 1 µM”, the target mRNA inhibition amounted to 33%. Regarding CACTACCATATTGGAA (sugars k3 d10 k3, PS), the target mRNA inhibition (SK-MEL-28, 4 µM) came out at 22%. On the same count and under the same terms, to TAATTTTAAGGCCCTG (sugars k3 d10 k3, PS) belongs 39%. As for AGTAACTGACACGCAC (sugars k3 d10 k3, PS), where the note is “SK-MEL-28, 4 µM”, the target mRNA inhibition is 51%. Turning to TCAGACAGTGCGCCCC (sugars k3 d10 k3, PS), for the setting “SK-MEL-28, 4 µM”, the target mRNA inhibition worked out at 26%. With GCCTTAATGGTGATTT (sugars k3 d10 k3, PS), the target mRNA inhibition (SK-MEL-28, 4 µM) came out at 26%. For the sequence “CAGTTGTAAATGAGTC (sugars k2 d9 e3 k2, PS)”, the target mRNA inhibition runs as follows: (H929, 0.00067 µM) 26%; (H929, 0.002 µM) 46%; (H929, 0.00667 µM) 64%; (H929, 0.02 µM) 72%; (H929, 0.04 µM) 50%; (KMS11, 0.2 µM) 83% and 91%. Moreover, the target mRNA inhibition was 10% (MM.1R, 0.074 µM); 28% (MM.1R, 0.222 µM); 52% (MM.1R, 0.666 µM); 62% (MM.1R, 1 µM); 77% (MM.1R, 2 µM). On to GTCAATACTGAAAGGC (sugars k3 d10 k3, PS), for which the target mRNA inhibition (SK-MEL-28, 4 µM) worked out at 66%. Regarding TCTAAAGTCCCATCGA (sugars k3 d10 k3, PS), where the note is “SK-MEL-28, 4 µM”, the target mRNA inhibition turned out to be 31%. As to GAAATAGCATCAGAGC (sugars k3 d10 k3, PS), the target mRNA inhibition (SK-MEL-28, 4 µM) came out at 45%. With GGGTCCTACCTGCTGG (sugars k3 d10 k3, PS), the target mRNA inhibition (SK-MEL-28, 4 µM) came out at 36%.

On to ACCTTCGCGGCCGGCC (sugars k3 d10 k3, PS), for which the target mRNA inhibition (MM.1R, 1 µM) was -42%.

As for CTACTATTGTGGAAAA (sugars k3 d10 k3, PS), the target mRNA inhibition (SK-MEL-28, 4 µM) turned out to be 3%. For “ACGGAAGTTTACACTG (sugars kddddddddddkekek, PS)”, for the setting “MM.1R, 1 µM”, the target mRNA inhibition stood at 7%. Take CAAGAAGGATGGGACC (sugars k3 d10 k3, PS): where the note is “SK-MEL-28, 4 µM”, the target mRNA inhibition turned out to be 25%.

Regarding AGCATTATCTACCTCA (sugars k3 d10 k3, PS), the target mRNA inhibition (SK-MEL-28, 4 µM) is 78%. As to TGCCACAACTCTCGCC (sugars k3 d10 k3, PS), the target mRNA inhibition (SK-MEL-28, 4 µM) came to 31%. Take “ACGTGTGCTTGCCAAG (sugars kkdddddddddkdkdk, PS)”: the target mRNA inhibition runs as follows: (MM.1R, 0.0625 µM) 15%; (MM.1R, 0.25 µM) 43%; (MM.1R, 1 µM) 75% and 66% and 56%; (MM.1R, 4 µM) 77%. As to AGAGGAATGGCGGATA (sugars k3 d10 k3, PS), the target mRNA inhibition (SK-MEL-28, 4 µM) was found to be 42%. As for AGGAAACTTGGAGCGC (sugars k3 d10 k3, PS), the target mRNA inhibition (MM.1R, 0.0625 µM) was -1%; the target mRNA inhibition (MM.1R, 0.25 µM) stood at 2%; the target mRNA inhibition (MM.1R, 1 µM) was 15%; the target mRNA inhibition (MM.1R, 4 µM) was found to be 42%; the target mRNA inhibition (SK-MEL-28, 4 µM) was 77%. In the case of TGGCCCTTCTCTCACG (sugars k3 d10 k3, PS), the target mRNA inhibition (SK-MEL-28, 4 µM) stood at 11%.

Turning to GTACACAAGACAAATC (sugars k3 d10 k3, PS), the target mRNA inhibition (SK-MEL-28, 4 µM) is 21%. In the case of TATTTATGCCCTCGCT (sugars k3 d10 k3, PS), for the setting “SK-MEL-28, 4 µM”, the target mRNA inhibition stood at 26%. As to CTCCTATAACTTCTCC (sugars k3 d10 k3, PS), where the note is “SK-MEL-28, 4 µM”, the target mRNA inhibition was found to be 33%. Regarding AGCAAGGCCTCTGAGC (sugars k3 d10 k3, PS), where the note is “SK-MEL-28, 4 µM”, the target mRNA inhibition was found to be 55%.

With AAGCTAAACTCCTAAG (sugars k3 d10 k3, PS), under “SK-MEL-28, 4 µM”, the target mRNA inhibition came out at 15%.

Take ACTGTCCACTGAGTAC (sugars k3 d10 k3, PS): the target mRNA inhibition (SK-MEL-28, 4 µM) came to 61%. Consider TCAGTTACTCACGAGC (sugars k3 d10 k3, PS), for which the target mRNA inhibition (MM.1R, 1 µM) is -3%. With CATCCGAAAAGACTGG (sugars k3 d10 k3, PS), the target mRNA inhibition (MM.1R, 1 µM) amounted to 14%. Take GCTTATCAATGCCAAG (sugars k3 d10 k3, PS): the target mRNA inhibition (SK-MEL-28, 4 µM) was found to be 40%.

For the sequence CACCAATGGCAGCACC (sugars k3 d10 k3, PS), the target mRNA inhibition (MM.1R, 1 µM) stood at 16%. As to “CAGTGATGTCAGGTTT (sugars kkdddddddddkdkdk, PS)”, the target mRNA inhibition by setting is: (MM.1R, 0.074 µM) 5%; (MM.1R, 0.222 µM) 23%; (MM.1R, 0.666 µM) 40%; (MM.1R, 1 µM) 47%; (MM.1R, 2 µM) 67%. Regarding “CAGTTGTAAATGAGTC (sugars kkkddddddddkekek, PS)”, the target mRNA inhibition reads like this: (MM.1R, 0.074 µM) 26%; (MM.1R, 0.222 µM) 52%; (MM.1R, 0.666 µM) 75%; (MM.1R, 1 µM) 76%; (MM.1R, 2 µM) 88%. On to GATTCATTTCCTTCAC (sugars k3 d10 k3, PS), for which the target mRNA inhibition (SK-MEL-28, 4 µM) was 49%. For AGCAGTGATGTCAGGT (sugars k3 d10 k3, PS), the target mRNA inhibition reads like this: (MM.1R, 0.0625 µM) 1%; (MM.1R, 0.25 µM) 23%; (MM.1R, 1 µM) 84% and 68%; (MM.1R, 4 µM) 92%. As for CCTACACAGGCTAATC (sugars k3 d10 k3, PS), where the note is “SK-MEL-28, 4 µM”, the target mRNA inhibition is 13%. On the same count and under the same terms, to AAAGAGCTTGCAGGTC (sugars k3 d10 k3, PS) belongs 37%. Turning to “CTGCTTGAGGTTTTCC (sugars k3 d9 k3 e1, PS)”, the target mRNA inhibition reads like this: (MM.1R, 0.074 µM) 18%; (MM.1R, 0.222 µM) 36%; (MM.1R, 0.666 µM) 60%; (MM.1R, 1 µM) 65%; (MM.1R, 2 µM) 82%. With ACCCACGGACGGAGGC (sugars k3 d10 k3, PS), the target mRNA inhibition (SK-MEL-28, 4 µM) is -9%.

AAGTAACTGACACGCA (sugars k3 d10 k3, PS): under “SK-MEL-28, 4 µM”, the target mRNA inhibition was found to be 23%. As to CATAACACGGTGTTGA (sugars k3 d10 k3, PS), under “SK-MEL-28, 4 µM”, the target mRNA inhibition is 36%. In the case of AGGAACGAAGAGCAGG (sugars k3 d10 k3, PS), for the setting “SK-MEL-28, 4 µM”, the target mRNA inhibition turned out to be 43%.

In the case of GGCCATCCAGAGGACC (sugars k3 d10 k3, PS), where the note is “SK-MEL-28, 4 µM”, the target mRNA inhibition stood at 25%. Turning to TGGAAACGAGAACGCA (sugars k3 d10 k3, PS), under “MM.1R, 1 µM”, the target mRNA inhibition was -7%. Take CAGTAACTTGACTTGA (sugars k3 d10 k3, PS): the target mRNA inhibition (SK-MEL-28, 4 µM) turned out to be 39%. In the case of AAAGTCCCATCGAATC (sugars k3 d10 k3, PS), where the note is “SK-MEL-28, 4 µM”, the target mRNA inhibition was 13%. Same read-out and setting: in the case of TGAACCCTTCATCAGA (sugars k3 d10 k3, PS) it was 48%. With TGTTCAGAAACCCTCA (sugars k3 d10 k3, PS), the target mRNA inhibition (MM.1R, 1 µM) was -15%. Consider CTGTCACCTGGCAACC (sugars k3 d10 k3, PS), for which the target mRNA inhibition (MM.1R, 1 µM) was determined as 11%. Take ACTCCATGAGGTTTTC (sugars k3 d10 k3, PS): the target mRNA inhibition (SK-MEL-28, 4 µM) stood at 73%. For the sequence “TTGATGTGATAGCTGA (sugars kkdddddddddkdkdk, PS)”, the target mRNA inhibition (MM.1R, 1 µM) is 36%. As to CATGAGCTCGGTCAAC (sugars k3 d10 k3, PS), the target mRNA inhibition (MM.1R, 1 µM) was -1%. As for GGCCCCAGCCAAGAAG (sugars k3 d10 k3, PS), the target mRNA inhibition (SK-MEL-28, 4 µM) worked out at 8%. In the case of TCAGAATTTAGTTAGT (sugars k3 d10 k3, PS), the target mRNA inhibition (SK-MEL-28, 4 µM) is 33%.

ATTGCCTGTTAAGTCC (sugars k3 d10 k3, PS): the target mRNA inhibition (SK-MEL-28, 4 µM) came to 73%. With AGCCAGTGCCAGTTCC (sugars k3 d10 k3, PS), the target mRNA inhibition (SK-MEL-28, 4 µM) was found to be 39%. Regarding TCTGAGACTACACCTA (sugars k3 d10 k3, PS), the target mRNA inhibition (SK-MEL-28, 4 µM) was 27%.

On to CCCTAGATAACATGAG (sugars k3 d10 k3, PS), for which the target mRNA inhibition (SK-MEL-28, 4 µM) was found to be 17%.

For the sequence AATGGCGGATAGATCT (sugars k3 d10 k3, PS), where the note is “MM.1R, 1 µM”, the target mRNA inhibition was 10% and 25%.

Turning to GCCACAACTCTCGCCT (sugars k3 d10 k3, PS), the target mRNA inhibition (SK-MEL-28, 4 µM) stood at 25%. On to CATACAGTGTGATTAA (sugars k3 d10 k3, PS), for which the target mRNA inhibition (SK-MEL-28, 4 µM) was determined as 53%.

As to GAGCAATGAACGGAAG (sugars k3 d10 k3, PS), the target mRNA inhibition (SK-MEL-28, 4 µM) amounted to 72%. On the same count and under the same terms, to CTGCGGGTCCTCCAGG (sugars k3 d10 k3, PS) belongs 20%. For the sequence “CAGTGATGTCAGGTTT (sugars kkdddddddddkekek, PS)”, the target mRNA inhibition stood at 8% (MM.1R, 0.074 µM); 28% (MM.1R, 0.222 µM); 53% (MM.1R, 0.666 µM); 64% (MM.1R, 1 µM); 77% (MM.1R, 2 µM).

As to TTGCATCTATAAGATG (sugars k3 d10 k3, PS), the target mRNA inhibition (SK-MEL-28, 4 µM) was 31%.

In the case of TGTTAGGTGACCCAAA (sugars k3 d10 k3, PS), the target mRNA inhibition (MM.1R, 1 µM) came to 2%. In the case of GGAGATATTAATTACT (sugars k3 d10 k3, PS), under “SK-MEL-28, 4 µM”, the target mRNA inhibition came to 50%. On to CGATCATCAACTTCTT (sugars k3 d10 k3, PS), for which the target mRNA inhibition by setting is: (MM.1R, 0.0625 µM) 24% and 23%; (MM.1R, 0.25 µM) 50%; (MM.1R, 1 µM) 72% and 75%; (MM.1R, 4 µM) 92% and 93%. In the case of CCTACTGGGTACATGG (sugars k3 d10 k3, PS), the target mRNA inhibition (SK-MEL-28, 4 µM) stood at 63%. As for “GAAGCATTTTATCATC (sugars k2 d9 e3 k2, PS)”, the target mRNA inhibition (MM.1R, 1 µM) is 9%. Consider TTTACACTGGATCTGA (sugars k3 d10 k3, PS), for which the target mRNA inhibition (SK-MEL-28, 4 µM) was found to be 25%. For TAAAAGGTTCCTGTCA (sugars k4 d8 k4, PS), for the setting “SK-MEL-28, 4 µM”, the target mRNA inhibition was found to be 43%.

On to ATAAACACCCCTTCTT (sugars k3 d10 k3, PS), for which, where the note is “SK-MEL-28, 4 µM”, the target mRNA inhibition was 30%. On to ATGCGGAGGTTCCTTG (sugars k3 d10 k3, PS), for which, under “MM.1R, 1 µM”, the target mRNA inhibition was 47% and 52%.

On to GTGTTCCAGGAGATAT (sugars k3 d10 k3, PS), for which the target mRNA inhibition (MM.1R, 1 µM) stood at 30%.

The values above are taken from the OligoGym collection.
